The source made the active and inactive calls.
Columns and labels:
[1] = molecular target: T1, Calpain-2 catalytic subunit (Sus scrofa, UniProt P43367); experiment: pig calpain II inhibitor potency, dose response, biochemical, fluorogenic peptide substrate (AID 1420); assay type: functional
T1 sequence (P43367 whole entry): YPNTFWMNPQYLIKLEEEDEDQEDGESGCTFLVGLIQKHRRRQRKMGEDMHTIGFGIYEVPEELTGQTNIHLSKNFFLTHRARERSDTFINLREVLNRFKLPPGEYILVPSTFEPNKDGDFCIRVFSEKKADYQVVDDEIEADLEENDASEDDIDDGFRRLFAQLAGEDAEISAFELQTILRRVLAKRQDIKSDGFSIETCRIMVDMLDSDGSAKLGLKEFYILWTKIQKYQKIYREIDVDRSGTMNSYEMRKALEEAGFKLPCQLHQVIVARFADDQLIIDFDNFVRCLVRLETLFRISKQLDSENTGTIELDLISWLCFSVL

[2] = molecular target: T2, Short transient receptor potential channel 4 (Mus musculus, UniProt Q9QUQ5); experiment: mouse TRPC4 channel inhibitors, dose response, cell-based, HEK293 TRPC4/mu-opioid, Fluo-4 calcium (AID 434942); assay type: functional;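 also: potency of inhibitors blocking the TRPC4 calcium response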
T2 sequence (Q9QUQ5 whole entry): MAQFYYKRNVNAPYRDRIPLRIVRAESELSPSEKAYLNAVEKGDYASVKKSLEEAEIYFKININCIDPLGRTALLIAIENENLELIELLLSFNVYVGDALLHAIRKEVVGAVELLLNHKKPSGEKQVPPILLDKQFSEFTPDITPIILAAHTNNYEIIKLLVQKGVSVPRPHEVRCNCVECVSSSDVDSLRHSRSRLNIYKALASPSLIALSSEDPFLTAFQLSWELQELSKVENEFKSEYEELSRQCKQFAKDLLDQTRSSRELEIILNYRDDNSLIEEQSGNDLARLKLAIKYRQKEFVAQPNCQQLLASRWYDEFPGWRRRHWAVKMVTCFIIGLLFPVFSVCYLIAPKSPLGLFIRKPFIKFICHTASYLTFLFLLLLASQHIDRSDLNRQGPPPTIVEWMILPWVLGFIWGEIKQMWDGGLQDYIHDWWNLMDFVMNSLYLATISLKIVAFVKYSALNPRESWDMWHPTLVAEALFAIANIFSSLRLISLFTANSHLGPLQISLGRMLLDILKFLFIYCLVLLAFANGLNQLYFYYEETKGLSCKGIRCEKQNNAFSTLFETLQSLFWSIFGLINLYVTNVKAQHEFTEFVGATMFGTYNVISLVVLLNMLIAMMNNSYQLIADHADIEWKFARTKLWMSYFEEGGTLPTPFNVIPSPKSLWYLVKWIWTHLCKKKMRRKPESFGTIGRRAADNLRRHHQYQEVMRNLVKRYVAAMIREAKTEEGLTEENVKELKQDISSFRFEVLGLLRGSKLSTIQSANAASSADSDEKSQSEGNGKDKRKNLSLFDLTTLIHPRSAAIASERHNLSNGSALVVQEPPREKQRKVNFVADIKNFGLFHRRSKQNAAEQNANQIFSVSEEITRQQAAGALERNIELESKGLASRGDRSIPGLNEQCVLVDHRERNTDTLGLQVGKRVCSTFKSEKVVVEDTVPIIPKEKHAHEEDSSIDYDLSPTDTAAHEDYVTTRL

[3] = Luminescence Cell-Based Dose Confirmation HTS to Identify Inhibitors of Platelet Dense Granule Release. [Related pubchem assays: 1663 (Primary HTS), 1678 (Summary of Project)]; assay type: functional
[4] = molecular target: Luciferin 4-monooxygenase (Photinus pyralis, UniProt P08659); experiment: firefly luciferase enzyme inhibitors, dose response, biochemical, luminescence (AID 1891)
Luciferin 4-monooxygenase, sequence (P08659 whole entry): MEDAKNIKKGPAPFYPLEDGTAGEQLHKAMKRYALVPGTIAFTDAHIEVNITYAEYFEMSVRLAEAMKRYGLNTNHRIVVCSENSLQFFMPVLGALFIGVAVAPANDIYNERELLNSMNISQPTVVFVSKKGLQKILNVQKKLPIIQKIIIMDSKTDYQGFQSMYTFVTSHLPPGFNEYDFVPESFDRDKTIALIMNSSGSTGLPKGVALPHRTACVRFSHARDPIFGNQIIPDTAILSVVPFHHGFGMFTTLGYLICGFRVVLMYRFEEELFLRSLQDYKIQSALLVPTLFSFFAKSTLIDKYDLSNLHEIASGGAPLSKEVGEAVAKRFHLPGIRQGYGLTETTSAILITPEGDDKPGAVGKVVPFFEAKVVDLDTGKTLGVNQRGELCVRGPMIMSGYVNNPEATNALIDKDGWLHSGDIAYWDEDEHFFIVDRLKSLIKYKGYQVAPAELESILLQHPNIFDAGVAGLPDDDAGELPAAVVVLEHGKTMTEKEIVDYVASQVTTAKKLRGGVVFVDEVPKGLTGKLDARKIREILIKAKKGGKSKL

[5] = inhibitors of SNCA 5'UTR-driven reporter translation, confirmation, H4 neuroglioma cells, luminescence (AID 1988); assay type: functional, cell-based
[6] = Luminescence Cell-Based Dose Response HTS to Identify Inhibitors of 5'UTR Stem-Loop Driven Prion Protein mRNA Translation in H4 Neuroglioblastoma Cells. [Related pubchem assays: 1827 (Project Summary), 1813 (Primary HTS)]; assay type: functional
[7] = inhibitors of firefly luciferase expression or activity, dose response, H4 neuroglioma cells, luminescence (AID 1990); assay type: functional, cell-based
[8] = molecular target: FAD-linked sulfhydryl oxidase ALR (Homo sapiens, UniProt P55789); experiment: inhibitors of human ALR sulfhydryl oxidase, dose response, biochemical, H2O2 detection, luminescence, cherry-pick (AID 493248)
FAD-linked sulfhydryl oxidase ALR, sequence (P55789 whole entry): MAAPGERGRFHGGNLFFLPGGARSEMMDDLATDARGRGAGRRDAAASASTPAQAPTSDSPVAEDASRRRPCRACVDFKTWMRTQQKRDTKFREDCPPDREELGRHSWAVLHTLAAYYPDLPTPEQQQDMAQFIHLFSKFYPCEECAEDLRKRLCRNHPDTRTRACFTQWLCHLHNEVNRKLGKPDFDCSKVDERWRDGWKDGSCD

[9] = Luminescence Cell-Based Dose Retest to Confirm Inhibitors of Cancer Stem Cells. [Related pubchem assays (depositor defined):AID2717, AID2721]; assay type: functional; conditions: Homo sapiens
[10] = test system: BJ; experiment: cytotoxicity toward BJ-TERT-LT-ST fibroblasts, dose response, cell-based, RAS-independent, luminescence (AID 1935); assay type: functional; conditions: Homo sapiens;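 also: BJ fibroblasts immortalized with TERT plus LT and ST oncogenes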
[11] = test system: BJ; experiment: cytotoxicity toward BJ-TERT fibroblasts, dose response, cell-based, RAS-independent, luminescence (AID 1933); assay type: functional; conditions: Homo sapiens
[12] = test system: BJ; experiment: cells; assay type: functional, cell-based; conditions: Homo sapiens
[13] = cytotoxicity toward DRD oncogenic fibroblasts, dose response, cell-based, non-viral oncogenic, luminescence (AID 1934); assay type: functional; conditions: Homo sapiens
[14] = growth suppression of PTEN-null colon cells, dose response, cell-based, HCT116 PTEN knockout (AID 1047); assay type: functional;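 also: HCT116 colon tumor cells with PTEN knocked out; cells exposed to compound for 60 hours before readout; potency for loss of cell viability measured by luminescence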
[15] = inhibitors of HIV Env-driven cell fusion, dose response, cherry-pick (AID 652057); assay type: functional, cell-based
[16] = inhibitors of clade B AD8 Env fusion, dose response, cell-based, cherry-pick (AID 652062); assay type: functional;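 also: luciferase signal from cell-cell fusion driven by HIV-1 clade B AD8 Env; potency is for inhibitors of fusion seen as a drop in luminescence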
[17] = test system: INS1; experiment: beta cell apoptosis inhibitors, cytokine rescue, dose response, luminescence, retest (AID 449756); assay type: functional, cell-based; conditions: Rattus norvegicus;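 also: cell death triggered by IL-1 beta plus TNF-alpha plus IFN-gamma mixture; protective hits raise ATP signal compared with cytokine alone wells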
[18] = P. falciparum Dd2 growth inhibitors, dose response, SYBR Green, cherry-picked samples (AID 1159567); assay type: functional, cell-based

COc1cc(OC)cc(C(=O)Nc2ccc3c(c2)COC3=O)c1
IC50 [1]: 5.36 µM (not active)

Cc1c(CCOC(=O)c2cccc([N+](=O)[O-])c2)sc[n+]1CC(=O)c1ccccc1
EC50 [2]: 6.68 µM (active)

Cc1cc(C)c2nc(O)c(CN(Cc3cccnc3)C(S)=NCCCN(C)C)cc2c1
EC50 [2]: 2.37 µM (active)

CCc1cccc(CC)c1NC(=O)c1cc(CN2C(=O)c3ccccc3C2=O)ccc1OC
IC50 [1]: 3.81 µM (not active)

COC(=O)Cc1c(C)c2ccc(OCC(=O)N3CCC(C)CC3)c(C)c2oc1=O
EC50 [3]: 22.1 µM (active)
EC50 [4]: > 112 µM (not active)

c1ccc(Oc2nc(Oc3ccccc3)nc(N3CCOCC3)n2)cc1
IC50 [1]: < 0.4 µM (not active)

Cc1nn(-c2nc3ccccc3n2Cc2ccccc2)c2c1C(=O)CC(C)(C)C2
EC50 [2]: 2.11 µM (active)

Clc1ccc2c(c1)-c1nnc(Br)n1-c1ccccc1S2
EC50 [2]: 5.96 µM (active)

CC(=O)Nc1nc2ccccc2n1Cc1ccccc1C
EC50 [5]: 11.5 µM (active)
EC50 [6]: 14.2 µM (active)
EC50 [7]: 14.5 µM (active)

O=C(O)c1cccc(NC(=O)c2cc(-c3cccc(Cl)c3)nc3ccccc23)c1
AC50 [8]: 0.01 µM (active)

O=C(NCc1ccccc1)/C(NC(=O)c1ccccc1)=C(/Sc1ccccn1)c1ccccc1
EC50 [3]: > 112 µM (not active)
EC50 [4]: > 112 µM (not active)

COc1cc(OC)cc(C(=O)Nc2ccc3c(c2)OCCO3)c1
EC50 [3]: 6.36 µM (active)
EC50 [4]: 3.95 µM (active)

CN(C)C(=O)CN1C(=O)C2CC=C(Cl)CC2C1=O (configuration not stated)
EC50 [3]: > 112 µM (not active)
EC50 [4]: > 112 µM (not active)

CC(C)OC(=O)CSc1nnc(COc2ccc([N+](=O)[O-])cc2)n1C
IC50 [1]: 9.11 µM (not active)

Cn1c(S)nnc1-c1cnn(-c2ccccc2)c1N
EC50 [3]: 4.85 µM (active)
EC50 [4]: > 112 µM (not active)

O=C(CCN1C(=O)/C(=C/c2ccc3c(c2)OCO3)SC1=S)Nc1ccccc1
IC50 [1]: 24.8 µM (not active)

Cc1ccc(C(=O)NNC(=O)c2ccc3ncccc3c2)cc1
IC50 [1]: 9.29 µM (not active)

COc1ccc(C(=O)NC2CCSc3ccccc32)cc1 (configuration not stated)
EC50 [3]: > 112 µM (not active)
EC50 [4]: > 112 µM (not active)

CCCCCC(=O)Nc1nc(C)c(-c2csc(Nc3cc(OC)ccc3OC)n2)s1
AC50 [9]: 1.29 µM (active)

COc1cc(-c2nc(-c3ccc(NC(=O)c4ccc(Br)o4)cc3)no2)cc(OC)c1OC
AC50 [9]: 0.725 µM (active)

COc1ccc(-n2c(=S)[nH]c3cc(C(=O)Nc4ccc(OC)c(OC)c4)ccc3c2=O)cc1
IC50 [1]: 22.5 µM (not active)

CCOC(=O)C1(Cc2ccccc2)CCN(Cc2ccc(C)s2)CC1
EC50 [2]: 0.133 µM (active)

COc1cc2c(cc1OC)CN(C(=O)c1cc(=O)c3ccccc3o1)CC2
EC50 [10]: > 150 µM (inconclusive)
EC50 [11]: 18.6 µM (active)
EC50 [12]: 43.3 µM (active)
EC50 [13]: 14.1 µM (active)

COc1cc(C2NCC(c3ccc(Cl)cc3Cl)c3c2[nH]c2ccccc32)cc(OC)c1OC (configuration not stated)
AC50 [9]: 3.7 µM (active)

Cc1cnc(C(=O)N2CCCC(C(=O)c3ccc(Cl)cc3C)C2)cn1 (configuration not stated)
EC50 [3]: > 112 µM (not active)
EC50 [4]: > 112 µM (not active)

O=C(CCC(=O)c1cccs1)Nc1ccc(N2CCCCC2)cc1
AC50 [8]: 6.49 µM (active)

Cn1nc(CC(=O)N2CCN(c3ccccc3)CC2)c2ccccc2c1=O
IC50 [1]: 13.1 µM (not active)

CCCn1c(SCC(=O)c2ccc3c(c2)NC(=O)CO3)nc2ccccc21
EC50 [14]: 22.4 µM (active)

O=S(=O)(c1ccccc1)c1cc(O)ccc1O
AC50 [8]: 6.08 µM (active)

CC(C)c1ccc(Nc2c([N+](=O)[O-])c(=O)n(C)c3ccccc23)cc1
IC50 [1]: 3.37 µM (not active)

CC1(c2ccccc2)CC(C)(C)N(C(=O)C2CCCO2)c2ccccc21 (configuration not stated)
EC50 [2]: 3.76 µM (active)

CC(=O)OCCCN1C(=O)c2cccc3cc(Br)cc(c23)C1=O
EC50 [2]: 0.211 µM (active)

CN1CCN(c2ccc(NC(=O)c3ccc(Cl)cc3)cn2)CC1
AC50 [9]: 19.8 µM (active)

CC(C)N=C(S)N1CCN(C/C=C/c2ccccc2)CC1
EC50 [2]: 4.73 µM (active)

COc1ccc(C(CNC(=O)c2oc3ccc(F)cc3c2C)N2CCCCC2)cc1 (configuration not stated)
EC50 [2]: 1.88 µM (active)

COc1ccccc1NC(=O)c1cc(O)nc2ccccc12
AC50 [8]: 0.202 µM (active)

Cc1c(C(=O)c2ccc(Cl)c([N+](=O)[O-])c2)c2ccccn2c1CCC#N
EC50 [10]: > 150 µM (inconclusive)
EC50 [11]: > 150 µM (not active)
EC50 [12]: > 150 µM (not active)
EC50 [13]: > 150 µM (not active)

O=C(NCCCn1ccnc1)C(=O)NCC(c1ccco1)N1CCN(c2ccccc2)CC1 (configuration not stated)
AC50 [8]: 3.74 µM (active)

NC(=O)CC(NC(=O)Cc1cccc2ccccc12)c1ccc(N2CCc3ccccc3C2)c([N+](=O)[O-])c1 (configuration not stated)
AC50 [9]: 12.2 µM (active)

CCOC(=O)CSc1nc2c(sc(=S)n2-c2ccccc2OC)c(=O)n1-c1ccccc1OC
EC50 [2]: 2.37 µM (active)

CSc1ncccc1C(=O)OCC(=O)Nc1ccc(C)c(S(=O)(=O)N2CCOCC2)c1
AC50 [15]: 53.2 µM (active)

COc1ccc(N2CCN(C(=O)CCn3nnc4ccccc43)CC2)cc1
AC50 [8]: 6.11 µM (active)

Cc1ccc(C(=O)N/N=C\c2ccc(-c3ccc(Cl)c(Cl)c3)o2)cn1
AC50 [9]: 3.71 µM (active)

Cc1ccc(S(=O)(=O)N(C)C[C@H]2Oc3ncc(Br)cc3C(=O)N([C@@H](C)CO)C[C@@H]2C)cc1
AC50 [15]: 4.57 µM (active)
AC50 [16]: 5.51 µM (active)

COc1cccc2c(N/N=C/c3ccccc3)cc(C)nc12
AC50 [8]: 6.41 µM (active)

O=C(N/N=C/c1cc(Cl)ccc1O)C(=O)Nc1ccccc1OC(F)(F)C(F)F
AC50 [9]: 2.35 µM (active)
AC50 [17]: 2.7 µM (active)

COc1cc(/C=N/n2c(C)nnc2S)ccc1OCc1ccccc1
AC50 [8]: 0.861 µM (active)

O=C(C1CCCCC1)N1CC(=O)N2[C@H](CO)[C@@H](c3ccc(C#CCc4ccccc4)cc3)[C@@H]2C1
AC50 [18]: 5.61 µM (active)

C[C@H]1CN([C@@H](C)CO)C(=O)c2c(c3ccccc3n2C)-c2ccccc2CO[C@@H]1CN(C)S(=O)(=O)c1ccc(C(F)(F)F)cc1
AC50 [18]: 4.6 µM (active)

CCS(=O)(=O)N1CCC2(CC1)CN(Cc1cc(F)ccc1F)[C@H](CO)c1c2c2ccc(OC)cc2n1C
AC50 [18]: 6.16 µM (active)

OC[C@@H]1Nc2ccc(C3=CCCCC3)cc2[C@@H]2[C@H]1CCN2Cc1nccs1
AC50 [18]: 6.24 µM (active)

N#C[C@@H]1[C@H](c2ccccc2-c2cccc(F)c2)[C@H](CO)N1C(=O)C1CCCC1
AC50 [18]: 2.8 µM (active)

C/C=C/c1ccc([C@@H]2[C@H]3CNC[C@@H]2N3Cc2cc(F)ccc2F)cc1
AC50 [18]: 4 µM (active)

C[C@H]1CN([C@@H](C)CO)C(=O)c2c(c3ccccc3n2C)-c2ccccc2CO[C@@H]1CN(C)Cc1ccc(Oc2ccccc2)cc1
AC50 [18]: 1.76 µM (active)

COc1cccc(CN2CC3(CN(Cc4ccccn4)C3)c3c([nH]c4cc(OC)ccc34)[C@@H]2CO)c1
AC50 [18]: 6.62 µM (active)
